Assay results as given in article PMC9344054, “Studies on Chemical Characterization of Ginkgo Amillaria Oral Solution and Its Drug–Drug Interaction With Piceatannol 3′-O-β-D-Glucopyranoside for Injection” (Frontiers in Pharmacology, 2022).

Experiments:
[1] = Pharmacokinetic study of PGI alone and after repeated GAO in rats; format: in vivo, rat; details: for clearance / AUC(0-inf) / AUC(0-t) / half-life: male, SD, rat, plasma, iv, 9 mg/kg, n = 8; for clearance: CL
Description: A total of 100 μl of rat plasma sample and 10 μl of polydatin solution (IS) were mixed with 400 μl of ice acetonitrile; the mixture was vortexed for 3 min and centrifuged at 13,200 × g under 4℃ for 20 min. The supernatant was transferred to another centrifuge tube and dry with nitrogen, re-dissolved with 100 μl of 80% methanol-H2O (v/v). The mixture was vortexed for 3 min and centrifuged at 13,200 × g under 4℃ for 20 min. For further LC-MS analysis, 3 μl of the supernatant was injected.
An ultrahigh-performance liquid chromatography-mass spectrometer (Waters, United States) was used for separation and detection. A Waters ACQUITY UPLC HSS T3 column (2.1 × 100 mm, 1.8 μm) was employed at 35℃ with a flow rate of 0.3 ml min^−1. The mobile phase consisted of acetonitrile (A) and water containing 0.1% FA (B). The following linear gradient was used: 0–4 min: 25–95% A; 4–4.5 min: 95–25% A; and 4.5–6 min: 25% A.
MRM was performed using QQQ-MS model Xevo TQ-S (Waters, United States). ESI was set as follows: capillary voltage, 3.0 kV; desolvation temperature, 450℃; and desolvation gas flow, 900 L/h (N2, purity 99.9%). The MRM transitions (precursor → product) of PG and polydatin (IS) were m/z 405.16 → m/z 243.18 and m/z 389.16 → m/z 227.20, respectively. The cone voltage of PG and polydatin were 80 and 84 V, respectively. The collision energy of PG and polydatin was 30 and 20 V, respectively.
Sixteen SD male rats (200 ± 20 g) were purchased from Beijing Vital River Laboratory Animal Technology Co., Ltd. (license number: SCXK (Beijing) 2016-0006). All rats were reared adaptively in a suitable environment for 1 week with freely available food and water. The temperature was maintained at 22℃, and the light was maintained for 12 h in a day.
The rats were randomly divided into two groups, viz., the control group (n = 8) and the combined group (n = 8). For the control group, 9 mg kg^−1 of PGI was injected into the tail vein of rats, whereas the same dosage of PGI was injected after 14 days of repeated GAO ingestion (51 mg kg^−1) for the combined group. The dosage administered to rats is in accordance with clinical dosage. After administration, blood samples were obtained from each rat at 0.03, 0.08, 0.16, 0.33, 0.5, 0.75, 1, 2, 3, 4, and 6 h. The blood sample was centrifuged at 6,600 × g under 4℃ for 10 min, and the supernatant was stored at −80℃ for further analysis.
Pharmacokinetic parameters were calculated under a noncompartmental model using Drug and Statistics 1.0 (DAS 1.0) software.

[2] = Stability of PG in rat blank plasma (method validation); format: in vitro ADME; parameters: unit not given here; details: n = 6
Description: UPLC-MS/MS method validation was performed according to the FDA bioanalytical method validation guidance. The method was validated in terms of linearity, accuracy, precision, extraction recovery, matrix effect, and stability.
The result of specificity is shown in Supplementary Figure S12. The RTs of PG and polydatin were 1.47 and 1.70 min, respectively. Their chromatographic peaks were in good shape, and there was no interference from other endogenous substances. The regression equation of PG was y = 0.584781x − 0.47063, and the r ^2 and range of the linear were 0.9929 and 0.001–40 μg mL^−1, respectively. LLOQ was 0.5 ng mL^−1. The RSD of the intraday and interday precision was less than 15%, and the accuracy was between 80% and 120% (Supplementary Table S11). […] The stability of PG was less than 12.83% (Supplementary Table S13 ). It was shown that the established method complies with the relevant regulations of pharmacokinetics.

[3] = test system: UGT1A1; assay: Metabolism of PG based on UGTs, rat liver microsomes with inhibitor pazopanib; format: in vitro ADME; details: PG 10 μmol L−1, pazopanib 50 μmol L−1, p > 0.05
Description: (§1) The incubation mixtures consisted of 1 mg mL^−1 of rat liver microsomes, 1 mmol L^−1 of UDPGA and 10 μmol L^−1 of PG, tris-HCl (pH = 7.4) and inhibitor (pazopanib (50 μmol L^−1)), niflumic acid (10 μmol L^−1), and fluconazole (50 μmol L^−1). The incubation system was the same as that in “2.4.1.,” whereas polydatin (20 μg mL^−1) was selected as the IS. Detection and analysis conditions based on UPLC-QQQ-MS were the same as those in “2.4.2.” The MRM transitions, cone voltage, and collision voltage of the target compounds and IS are shown in Supplementary Table S1.

[4] = test system: UGT1A9; assay: Metabolism of PG based on UGTs, rat liver microsomes with inhibitor niflumic acid; format: in vitro ADME; details: PG 10 μmol L−1, niflumic acid 10 μmol L−1, p < 0.0001
Description: as §1

[5] = after 14 days repeated GAO, p < 0.05
[6] = Combined group: PGI 9 mg kg−1 tail vein after 14 days of repeated GAO 51 mg kg−1, rats
[7] = Control group: PGI 9 mg kg−1 tail vein, rats

## OC[C@H]1O[C@@H](Oc2cc(/C=C/c3cc(O)cc(O)c3)ccc2O)[C@H](O)[C@@H](O)[C@@H]1O [PG, Piceatannol-3′-O-β-D-glucopyranoside]
[1]; [5]
  change of AUC 0-t of PG, combined group vs control: significantly increased
  change of AUC 0-∞ of PG, combined group vs control: significantly increased
  change of T1/2 of PG, combined group vs control: prolonged
  change of clearance of PG, combined group vs control: significantly decreased
[1]; [6]
  clearance: 30.4 mL/min/kg
  AUC(0-inf): 5010 ± 686 ng·h/mL
  AUC(0-t): 4900 ± 606 ng·h/mL
  half-life: 1.74 ± 0.802 h
[1]; [7]
  clearance: 46.2 mL/min/kg
  AUC(0-inf): 3320 ± 525 ng·h/mL
  AUC(0-t): 3310 ± 517 ng·h/mL
  half-life: 1.01 ± 0.409 h
[2]; 4h, Con. 0.005 μg/mL
  Stability, Measured con.: 111.33
[2]; 4h, Con. 5 μg/mL
  Stability, Measured con.: 117.12
[2]; 4h, Con. 30 μg/mL
  Stability, Measured con.: 98.21
[2]; 24h, Con. 0.005 μg/mL
  Stability, Measured con.: 116.33
[2]; 24h, Con. 5 μg/mL
  Stability, Measured con.: 115.03
[2]; 24h, Con. 30 μg/mL
  Stability, Measured con.: 98.37
[2]; 15 days, Con. 0.005 μg/mL
  Stability, Measured con.: 92.00
[2]; 15 days, Con. 5 μg/mL
  Stability, Measured con.: 100.78
[2]; 15 days, Con. 30 μg/mL
  Stability, Measured con.: 96.48
[2]; Freeze-thaws stability (3 times), Con. 0.005 μg/mL
  Stability, Measured con.: 107.66
[2]; Freeze-thaws stability (3 times), Con. 5 μg/mL
  Stability, Measured con.: 104.58
[2]; Freeze-thaws stability (3 times), Con. 30 μg/mL
  Stability, Measured con.: 105.11
[3]
  contribution of UGT1A1 to metabolism of PG: contributed little or no participation
[4]
  metabolism of PG by UGT1A9: mainly metabolized by UGT1A9
